# Experiments:
# Experiment in all cases: relative viability (nuclei count vs DMSO), 5 days (fraction); higher = more cells survive
# [1] = compound: O=C(NCCCNc1nc(Nc2cccc(NC(=O)N3CCCC3)c2)ncc1I)c1cccs1 [BX 795] + O=C(CCCCCCC(=O)Nc1ccccc1)NO [Vorinostat] (partner 1 µM)
# How it was run: (§1)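 Relative viability is defined as nuclei in treated wells over nuclei in vehicle wells. Duplicate plates were run and medians reported. Lung cancer cell lines in 1536-well plates were dosed by pin tool one day after seeding, with one drug or with a fixed anchor-drug dose plus five library-drug doses (not always all listed) in √10 steps, and nuclei were counted after 5 days.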
# [2] = compound: O=C(NCCCNc1nc(Nc2cccc(NC(=O)N3CCCC3)c2)ncc1I)c1cccs1 [BX 795] + CCNC(=O)c1noc(-c2cc(C(C)C)c(O)cc2O)c1-c1ccc(CN2CCOCC2)cc1 [Luminespib] (partner 0.01 µM)
# How it was run: as §1
# [3] = compound: O=C(NCCCNc1nc(Nc2cccc(NC(=O)N3CCCC3)c2)ncc1I)c1cccs1 [BX 795] + CC(C)C[C@H](NC(=O)[C@H](Cc1ccccc1)NC(=O)c1cnccn1)B(O)O [Bortezomib] (partner 0.002 µM)
# How it was run: as §1
# [4] = compound: O=C(NCCCNc1nc(Nc2cccc(NC(=O)N3CCCC3)c2)ncc1I)c1cccs1 [BX 795] + N=C(N)NC(=N)NCCc1ccccc1 [Phenformin] (partner 250 µM)
# How it was run: as §1
# [5] = compound: O=C(NCCCNc1nc(Nc2cccc(NC(=O)N3CCCC3)c2)ncc1I)c1cccs1 [BX 795] + Cc1nc(NC(=O)N2CCC[C@H]2C(N)=O)sc1-c1ccnc(C(C)(C)C(F)(F)F)c1 [Alpelisib] (partner 2 µM)
# How it was run: as §1
Cell Line,relative viability ([1]; first compound 0.04 µM),relative viability ([1]; first compound 0.1265 µM),relative viability ([1]; first compound 0.4 µM),relative viability ([1]; first compound 1.265 µM),relative viability ([2]; first compound 0.04 µM),relative viability ([2]; first compound 0.1265 µM),relative viability ([2]; first compound 0.4 µM),relative viability ([2]; first compound 1.265 µM),relative viability ([3]; first compound 0.04 µM),relative viability ([3]; first compound 0.1265 µM),relative viability ([3]; first compound 0.4 µM),relative viability ([3]; first compound 1.265 µM),relative viability ([4]; first compound 0.04 µM),relative viability ([4]; first compound 0.1265 µM),relative viability ([4]; first compound 0.4 µM),relative viability ([4]; first compound 1.265 µM),relative viability ([5]; first compound 0.04 µM),relative viability ([5]; first compound 0.1265 µM),relative viability ([5]; first compound 0.4 µM),relative viability ([5]; first compound 1.265 µM)
PC-14,0.819,0.778,0.424,0.433,0.138,0.113,0.138,0.117,0.866,0.978,0.875,0.582,0.533,0.488,0.633,0.289,0.955,0.939,0.918,0.813
CAL-12T,0.661,0.715,0.523,0.413,0.534,0.488,0.194,0.181,0.954,0.929,1.04,0.623,0.599,0.591,0.447,0.212,1.12,1.5,1.29,0.285
COR-L23,0.379,0.458,0.205,0.106,0.576,0.573,0.71,0.197,1.1,1.02,0.916,0.979,0.391,0.411,0.431,0.234,0.882,0.838,0.98,0.356
EKVX,0.865,0.696,0.738,0.537,0.893,0.977,0.825,0.79,1.15,1.09,0.99,0.886,0.225,0.247,0.21,0.217,0.841,0.933,0.808,0.837
NCI-H650,0.391,0.429,0.339,0.34,0.765,0.759,0.65,0.745,0.792,0.761,1.06,0.432,0.467,0.425,0.5,0.408,1.09,1.07,1.02,0.7
NCI-H3122,0.715,1.03,1.11,0.679,0.0821,0.114,0.0793,0.0891,1.02,1.04,1.04,0.986,0.409,0.38,0.381,0.348,0.989,0.832,0.78,0.866
HARA,0.523,0.595,0.447,0.482,0.588,0.838,0.907,0.656,1.12,1.03,1.1,1.06,0.446,0.424,0.506,0.447,0.752,0.82,1.2,0.605
ABC-1,0.961,,1.24,0.922,0.445,0.381,0.334,0.283,0.392,0.299,0.332,0.291,0.263,0.265,0.262,0.195,1.17,1.25,0.911,0.764
LC-2-ad,0.755,0.759,0.595,0.37,1.16,1.03,0.938,0.662,1.11,1.01,1.06,0.968,0.585,0.5,0.48,0.41,0.959,0.89,0.654,0.268
NCI-H661,0.824,0.862,0.832,0.449,1,0.951,0.828,0.71,0.767,0.806,0.695,0.706,0.261,0.245,0.274,0.238,0.85,0.834,0.686,0.704
NCI-H647,0.553,0.658,0.571,0.189,0.149,0.134,0.104,0.105,0.913,1.11,0.801,0.3,0.456,0.541,0.572,0.266,1.13,1.18,1.31,0.522
HCC-15,0.773,0.865,0.818,0.718,0.346,0.298,0.298,0.408,0.969,1.02,0.99,0.778,0.423,0.485,0.482,0.283,0.865,0.877,0.959,0.665
NCI-H1993,0.833,0.731,0.577,0.524,0.686,1.1,0.726,0.532,1.15,1.26,1.05,1.02,0.492,0.499,0.485,0.523,0.583,0.655,0.641,0.689
NCI-H727,1.29,1.25,1.14,1.21,0.345,0.257,0.29,0.389,1.05,0.962,0.926,0.739,0.571,0.566,0.444,0.617,0.577,0.763,0.583,0.376
HCC-44,1.08,1.12,1.18,1.07,0.98,1.37,0.497,0.58,0.818,0.929,1.1,0.772,0.157,0.162,0.222,0.153,0.742,0.865,0.85,0.543
NCI-H2023,0.471,0.689,0.189,0.3,0.766,0.613,0.442,0.272,0.932,0.965,0.433,0.675,0.426,0.378,0.305,0.195,0.543,0.575,0.45,0.352
NCI-H2126,0.805,0.799,0.913,0.73,0.902,0.955,0.812,0.944,1.08,1.07,1.21,1.07,0.534,0.542,0.605,0.498,0.768,0.763,0.876,0.728
NCI-H838,0.737,0.69,0.642,0.201,0.255,0.292,0.226,0.181,0.841,0.792,0.719,0.401,0.494,0.538,0.425,0.214,0.944,1.03,0.995,0.412
201T,1.06,0.991,1.23,1.12,1.03,1.07,1.19,1.04,1.12,1.08,1.18,1.11,0.47,0.421,0.464,0.421,1.01,1.02,1.1,1.03
NCI-H1734,0.888,0.773,0.482,0.34,0.173,0.209,0.154,0.149,0.965,1.03,0.914,0.545,0.419,0.375,0.402,0.307,0.699,0.658,0.708,0.424
NCI-H1651,0.553,0.478,0.548,0.541,0.982,0.987,0.78,0.511,0.925,0.961,1.04,0.971,0.322,0.356,0.312,0.24,0.933,1.02,0.881,0.782
LCLC-97TM1,0.774,0.725,0.768,0.468,0.939,0.657,0.774,0.456,0.563,0.527,0.954,0.417,0.495,0.444,0.457,0.348,0.236,0.229,0.393,0.155
H3255,0.79,0.797,0.938,0.754,0.891,0.852,0.979,0.891,0.731,0.816,1.11,0.66,0.371,0.354,0.406,0.363,0.873,0.845,0.759,0.584
NCI-H322M,0.981,0.884,1.36,1.18,0.589,0.915,0.266,1.03,1.39,1.26,1.44,1.39,0.858,0.796,0.951,0.659,0.889,0.846,0.886,1
NCI-H441,0.893,0.843,0.848,0.613,0.323,0.297,0.333,0.278,0.393,0.541,0.747,0.577,0.986,0.831,0.983,0.531,0.779,0.748,1.42,0.552
LXF-289,0.838,0.719,0.811,0.674,0.707,0.693,0.828,0.51,0.981,1,0.977,0.967,0.464,0.529,0.582,0.467,1.06,1.04,1.11,0.693
HOP-62,0.807,0.638,0.546,0.456,0.81,1.01,1.08,1.02,0.51,0.59,0.615,0.682,0.711,0.744,0.789,0.667,0.901,0.643,1.24,1

# — the supplement of paper PMC10307832
